{"source": "patent US20060140994A1", "about": "“Application of an antimicrobial agent on an elastomeric article” (priority 2004, published 2006)", "tested_on": "Staphylococcus aureus (ATCC #27660)", "assay": "Rapid Germicidal Time Kill, ASTM protocol 04-123409-106", "assay_type": "cell-based", "settings": "for log reduction of organisms: nitrile gloves, versus applied organisms estimated from latex control", "description": "To test the antimicrobial efficacy of a polyhexamethylene biguanide, such as available commercially under the trademark Cosmosil® CQ from Arch Chemicals, Inc., Norwalk, Conn., we treated nitrile examination gloves according to ASTM protocol 04-123409-106 “Rapid Germicidal Time Kill.” Briefly, about 50 μL of an overnight culture of Staphylococcus aureus (ATCC #27660, 5×10^8CFU/mL) was applied to the glove material. After a total contact time of about 6 minutes the glove fabric was placed into a neutralizing buffer. Surviving organisms were extracted and diluted in Letheen broth. Aliquots were spread plated on Tryptic Soy Agar plates. Plates were incubated for 48 hours at 35° C. Following incubation the surviving organisms were counted and the colony forming units (CFU) were recorded. The reduction (log10) in surviving organisms from test material versus control fabric was calculated:\nLog10 CFU/swatch Control−Log10 CFU/swatch Test Article=Log10 Reduction.", "data": [{"substance": "polyhexamethylene biguanide", "values": [{"measurement": "log reduction of Staphylococcus aureus", "setting": "microtextured nitrile glove, machine applied at 0.03 g/glove", "result": "greater than four"}, {"measurement": "log reduction of organisms", "setting": "hand sprayed with no heat", "result": "greater than one"}, {"measurement": "log reduction of organisms", "setting": "machine sprayed under heated conditions", "result": "greater than 5 log"}]}]}
